Measured values taken from patent publication US20210322508A1, “PEPTIDES AND COMPOSITIONS FOR TARGETED TREATMENT AND IMAGING” (SIGNABLOK, INC., priority 2018, published 2021).
Residues, ends and D or L forms follow the SMILES beside them.

What was measured:
[1] = tested on: C57BL/6J neonatal mice with oxygen-induced retinopathy; assay: Oxygen-induced retinopathy (OIR): pathological retinal neovascularization; assay type: in vivo
Method: Litters of C57BL/6J (Jackson Laboratory, Bar Harbor, Me.) neonatal mice and nursing dams were exposed to a hyperoxia environment (75% oxygen) from postnatal day 7 (P7) to P12 and returned to normoxia until P17. The hyperoxia exposure causes degeneration of the immature retinal vessels. […] Beginning on P7, mice were treated until day P17 by daily i.p. injections of GF9, GF9-SLP, TREM-1/TRIOPEP-sSLP or vehicle (phosphate-buffered saline, pH 7.4; PBS). […] In another subset of experiments, rho B-labeled Gd-containing sSLP were used to confirm the ability of these targeted SLP to cross the BRB in other species (rats and rabbits). In another subset of experiments, neonatal mice and nursing dams were not subjected to a hyperoxia environment and reared in room air (RA). […]
Treatment effects on vaso-obliteration and pathological angiogenesis were assessed by morphometric analysis of the avascular and neovascularization areas in retinal flat mounts after labeling with isolectin B4 as described in Patel, et al. Am J Pathol 2014, 184:3040-3051. […] After washing 3 times with PBS, the images were captured with a 20× lens using a Zeiss Axioplan2 fluorescence microscope (Carl Zeiss Meditec, Inc., Dublin, Calif.). Intravitreal neovascular formation and avascular area were measured as described in Connor, et al. Nat Protoc 2009, 4:1565-1573. […]

[2] = tested on: LPS-stimulated macrophages; assay: cytokine production by LPS-stimulated macrophages; assay type: cell-based, murine; conditions: 24 h at 37° C.; for cytokine release by LPS-stimulated macrophages in the presence of HDL: with HDL
Method: FIG. 33 presents exemplary data showing cytokine production by LPS-stimulated macrophages incubated for 24 h at 37° C. with GF9, G-TE21, G-HV21 and G-KV21 in the presence of HDL.

[3] = tested on: human non-small cell lung cancer A549 xenograft; assay type: in vivo; conditions: vs vehicle; for tumor growth: PTX 20 mg/kg as comparator
Method: PTX, paclitaxel. ****, P<0.0001 as compared with vehicle-treated animals.
PTX, paclitaxel. ****, p<0.0001 as compared with vehicle-treated animals.
Abbreviations: PTX, paclitaxel; PBS, phosphate-buffer saline.
Treatment persisted for 21 days. Mean tumor volumes are calculated and plotted. Body weighs are plotted.

[4] = tested on: human pancreatic cancer BxPC-3 xenograft; conditions: for intratumoral macrophage infiltration (F4/80 staining): 25 mg/kg GF9, 2.5 mg/kg GF9-sSLP/GF9-LPC, 4 mg/kg GA/E31-sSLP where stated; for tumor growth: i.p. 5qw, 25 mg/kg GF9, 2.5 mg/kg GF9-SLP, 4 mg/kg GA/E31-SLP where stated
Method: (B) F4/80 staining. Results are expressed as the mean±SEM (n=4 mice per group). *, p<0.05; **, p<0.01, ****, p<0.0001 (versus vehicle). […] Scale bar=200 μm.
Treatment persisted for 31, 29 and 29 days for mice containing AsPC-1, BxPC-3 and Capan-1 tumor xenografts, respectively. Mean tumor volumes are calculated and plotted. All results are expressed as the mean±SEM (n=6 mice per group). On the final day of treatment, tumor volumes were compared between the drug-treated and control groups. **, p<0.01; ***, p<0.001; ****, p<0.0001 (versus vehicle).
As described herein, after tumors in AsPC-1-, BxPC-3- or Capan-1-bearing mice reached a volume of 150-200 mm^3, mice were randomized into groups and intraperitoneally (i.p.) administered once daily 5 times per week (5qw) with either vehicle (black diamonds), GA/E31-dSLP (light gray triangles) or GA/E31-sSLP (white triangles) at indicated doses. Treatment persisted for 31, 29 and 29 days for mice containing AsPC-1, BxPC-3 and Capan-1 tumor xenografts, respectively. Mean tumor volumes are calculated and plotted. All results are expressed as the mean±SEM (n=6 mice per group). On the final day of treatment, tumor volumes were compared between the drug-treated and control groups. **, p<0.01; ***, p<0.001; ****, p<0.0001 (versus vehicle).
Treatment persisted for 31, 29 and 29 days for mice containing AsPC-1, BxPC-3 and Capan-1 tumor xenografts, respectively. Kaplan-Meier survival curves are shown for AsPC-1-, BxPC-3- or Capan-1-bearing mice (n=6 mice per group). **, p<0.01; ***, p<0.001 by log-rank test (versus vehicle).
Serum CSF1, VEGF and IL-6 levels were analyzed on study days 1 and 8 in BxPC-3-bearing mice treated daily 5 times per week (5qw) with either vehicle (black diamonds), GF9 (white circles) or GF9-LPC (black circles) at indicated doses. Results are expressed as the mean±SEM (n=5 mice per group). *, p<0.05; **, p<0.01; ***, p<0.001; ****, p<0.0001 (versus vehicle).

SMILES | toxicity / tolerability in mouse litters ([1]; mouse, in vivo) | cytokine release by LPS-stimulated macrophages in the presence of HDL [2] | cytokine production by LPS-stimulated macrophages in the absence of HDL ([2]; without HDL) | average tumor weights [3] | tumor growth [3] | intratumoral macrophage infiltration (F4/80 staining) [4] | tumor growth [4] | reduction of pathological RNV ([1]; free peptides, daily i.p. P7-P17 at indicated doses)
CC(C)C[C@H](NC(=O)[C@H](Cc1ccccc1)NC(=O)CN)C(=O)N[C@@H](CO)C(=O)N[C@@H](CCCCN)C(=O)N[C@@H](CO)C(=O)N[C@@H](CC(C)C)C(=O)N[C@H](C(=O)N[C@@H](Cc1ccccc1)C(=O)O)C(C)C [GF9] (H-GFLSKSLVF-OH) | non-toxic and well-tolerated in mouse litters |  |  |  |  |  |  | 
CC(C)C[C@H](NC(=O)[C@H](Cc1ccccc1)NC(=O)CN)C(=O)N[C@@H](CO)C(=O)N[C@@H](CCCCN)C(=O)N[C@@H](CO)C(=O)N[C@@H](CC(C)C)C(=O)N[C@H](C(=O)N[C@@H](Cc1ccccc1)C(=O)NCC(=O)N[C@@H](CCC(=O)O)C(=O)N[C@@H](CCC(=O)O)C(=O)N[C@@H](CC[S+](C)[O-])C(=O)N[C@@H](CCCNC(=N)N)C(=O)N[C@@H](CC(=O)O)C(=O)N[C@@H](CCCNC(=N)N)C(=O)N[C@@H](C)C(=O)N[C@@H](CCCNC(=N)N)C(=O)N[C@@H](C)C(=O)N[C@@H](Cc1c[nH]cn1)C(=O)N[C@H](C(=O)O)C(C)C)C(C)C (stereo partly shown) [G-HV21] (HELM PEPTIDE1{G.F.L.S.K.S.L.V.F.G.E.E.[CS(=O)CC[C@H](N[*:1])C(=O)[*:2]].R.D.R.A.R.A.H.V}$$$$V2.0) |  | significantly inhibit the cytokine release | does not affect the cytokine production | significantly decrease the tumor weight | significantly inhibit the tumor growth | reduce macrophage infiltration into the tumor | significantly inhibits the tumor growth | 
CC(C)C[C@H](NC(=O)[C@H](Cc1ccccc1)NC(=O)CN)C(=O)N[C@@H](CO)C(=O)N[C@@H](CCCCN)C(=O)N[C@@H](CO)C(=O)N[C@@H](CC(C)C)C(=O)N[C@H](C(=O)N[C@@H](Cc1ccccc1)C(=O)N[C@@H](Cc1c[nH]c2ccccc12)C(=O)N[C@@H](CCC(N)=O)C(=O)N[C@@H](CCC(=O)O)C(=O)N[C@@H](CCC(=O)O)C(=O)N[C@@H](CC[S+](C)[O-])C(=O)N[C@@H](CCC(=O)O)C(=O)N[C@@H](CC(C)C)C(=O)N[C@@H](Cc1ccc(O)cc1)C(=O)N[C@@H](CCCNC(=N)N)C(=O)N[C@@H](CCC(N)=O)C(=O)N[C@@H](CCCCN)C(=O)N[C@H](C(=O)O)C(C)C)C(C)C (stereo partly shown) [G-KV21] (HELM PEPTIDE1{G.F.L.S.K.S.L.V.F.W.Q.E.E.[CS(=O)CC[C@H](N[*:1])C(=O)[*:2]].E.L.Y.R.Q.K.V}$$$$V2.0) |  | significantly inhibit the cytokine release |  | significantly decrease the tumor weight | significantly inhibit the tumor growth | reduce macrophage infiltration into the tumor | significantly inhibits the tumor growth | up to 95%
